According to article PMC9820430, “New Affordable Methods for Large-Scale Isolation of Major Olive Secoiridoids and Systematic Comparative Study of Their Antiproliferative/Cytotoxic Effect on Multiple Cancer Cell Lines of Different Cancer Origins” (International Journal of Molecular Sciences, 2022):
Like-named read-outs stand apart in the source and are kept apart here.

What was measured:
SK-BR-3 [1] = settings: cited from earlier work
Huh-7 = assay: ATP-based luminescence cell viability assay (ViaLight), 72 h; parameters: species or system human; settings: Homo sapiens, Huh-7, 72 h, 72 h treatment, read-out: EC50 Values of Olive Oil Polyphenols
Method: (§1) The antiproliferative/cytotoxic effects of the selected OOPs on each cell line were assessed by measuring the cellular ATP levels after 72 h treatments using an ATP-based luminescence assay. This assay, initially developed as a tumor chemosensitivity assay, has shown considerable promise as a general in vitro toxicity assay due to its high sensitivity that allows the detection of a small number of cells. Consequently, it can be applied to both cancer cell lines and primary tissue cells. […] The EC50 values were calculated by nonlinear regression (curve fit) using a sigmoidal dose–response equation (Figure 2A and Figure S2).
(§2) The OOPs tested in this study were first dissolved in an appropriate DMSO volume such as to prepare a final stock solution of 50 mM, which was further used to prepare various compound concentrations in DMSO-based solutions. The final DMSO concentration in the cell culture was maintained constant in all treated groups of any given experiment and never exceeded the value of 0.2% (v/v). For the treatment experiments, cells were plated in 96-well culture plates, in 100 μL of complete medium at a seeding density of 5000–10,000 cells/well—depending on cells’ size and doubling time—and were allowed to adhere overnight (~16 h). The next day, 150 μL of complete medium was added to each well and the cells were treated with various concentrations of OOPs. Each concentration was tested in triplicate and was repeated 2–3 times. To prepare the final concentration solutions, 0.5 μL of a 500× stock of each tested compound in DMSO was added directly into each well in a final volume of 250 μL culture medium and was gently mixed by pipetting. Control wells were prepared under the same experimental conditions by adding only DMSO at a final concentration of 0.2% (v/v). Compounds were not renewed during the entire period of cell exposure. All cells were cultured at 37 °C in a 5% (v/v) CO2 for 24, 48 or 72 h.
(§3) Briefly, after the treatment with OOPs, the adapted medium was removed from the dish wells and the cells were washed twice with medium without FBS. Then, the C-lysis (LT27-076) was diluted in PBS (1:2) and a volume of 50 μL was added to each well. Cells were incubated with C-lysis for at least 10 min. Finally, an equal volume of lysed cells from each well and ATP monitoring reagent (AMR; LT27-212) was transferred to the wells of a white-walled illuminometer plate (Greiner bio-one; 655074). Cell viability was quantified by measuring luminescence using a multi-mode microplate reader Safire^2 Tecan (software Magellan V6.00 STD.2PC WIN.20000/XP).

MDA-MB 231 = assay: as above; parameters: species or system human; settings: for EC50: MDA-MB 231, 72 h treatment, read-out: EC50 Values of Olive Oil Polyphenols
Method: as §1, §2, §3

MRC-5 = assay: as above; parameters: species or system human; settings: Homo sapiens, MRC5; MRC-5 (non cancer, lung); 72 h treatment; read-out: EC50 Values of Olive Oil Polyphenols
Method: as §1, §2, §3

H1299 = assay: as above; parameters: species or system human
Method: as §1, §2, §3

PANC-1 = assay: as above; parameters: species or system human; settings: Homo sapiens, PANC-1, 72 h, 72 h treatment, read-out: EC50 Values of Olive Oil Polyphenols
Method: as §1, §2, §3

Hela = assay: as above; parameters: species or system human; settings: Homo sapiens, HeLa, 72 h, 72 h treatment, read-out: EC50 Values of Olive Oil Polyphenols
Method: as §1, §2, §3

HT-29 = assay: as above; parameters: species or system human; settings: Homo sapiens, HT-29, 72 h, 72 h treatment, read-out: EC50 Values of Olive Oil Polyphenols
Method: as §1, §2, §3

AGS = assay: as above; parameters: species or system human; settings: Homo sapiens, 72 h, 72 h treatment, read-out: EC50 Values of Olive Oil Polyphenols
Method: as §1, §2, §3

HaCaT = assay: as above; parameters: species or system human; settings: Homo sapiens, HaCaT, 72 h, HaCaT (immortal keratinocytes); 72 h treatment; read-out: EC50 Values of Olive Oil Polyphenols
Method: as §1, §2, §3

SK-BR-3 [2] = assay: as above; parameters: species or system human; settings: for EC50: Homo sapiens, SK-BR-3, 72 h, SK-BR-3, 72 h treatment, read-out: EC50 Values of Olive Oil Polyphenols
Method: as §1, §2, §3

MKN-45 = assay: as above; parameters: species or system human; settings: Homo sapiens, MKN-45, 72 h, 72 h treatment, read-out: EC50 Values of Olive Oil Polyphenols
Method: as §1, §2, §3

H1437 = assay: as above; parameters: species or system human; settings: for EC50: Homo sapiens, NCI-H1437, 72 h, H1437, 72 h treatment, read-out: EC50 Values of Olive Oil Polyphenols
Method: as §1, §2, §3

A2058 = assay: as above; parameters: species or system human; settings: for EC50: Homo sapiens, A2058, 72 h, A2058, 72 h treatment, read-out: EC50 Values of Olive Oil Polyphenols
Method: as §1, §2, §3

MCF-7 = assay: as above; parameters: species or system human; settings: 72 h treatment, read-out: EC50 Values of Olive Oil Polyphenols
Method: as §1, §2, §3

ME-180 = assay: as above; parameters: species or system human; settings: Homo sapiens, ME-180, 72 h, 72 h treatment, read-out: EC50 Values of Olive Oil Polyphenols
Method: as §1, §2, §3

Caco-2 = assay: as above; parameters: species or system human; settings: 72 h treatment, read-out: EC50 Values of Olive Oil Polyphenols
Method: as §1, §2, §3

MCF 10A = assay: as above; parameters: species or system human; settings: Homo sapiens; MCF 10A (non-tumorigenic epithelial); 72 h treatment; read-out: EC50 Values of Olive Oil Polyphenols
Method: as §1, §2, §3

SK-MEL-28 = assay: as above; parameters: species or system human; settings: for EC50: SK-MEL-28, 72 h treatment, read-out: EC50 Values of Olive Oil Polyphenols
Method: as §1, §2, §3

HepG-2 = assay: as above; parameters: species or system human; settings: Homo sapiens, HepG2, 72 h, 72 h treatment, read-out: EC50 Values of Olive Oil Polyphenols
Method: as §1, §2, §3

NHDF = assay: as above; settings: NHDF (normal human dermal fibroblasts); 72 h treatment; read-out: EC50 Values of Olive Oil Polyphenols
Method: as §1, §2, §3

| EC50 (Huh-7) | EC50 (MDA-MB 231; Homo sapiens, MDA-MB-231, 72 h) | EC50 (PANC-1) | EC50 (Hela) | EC50 (HT-29) | EC50 (AGS) | EC50 (SK-BR-3 [2]) | EC50 (MKN-45) | EC50 (H1437) | EC50 (MCF-7; Homo sapiens, MCF7, 72 h) | EC50 (Caco-2; Homo sapiens, Caco-2, 72 h) | EC50 (SK-MEL-28; Homo sapiens, SK-MEL-28, 72 h) | Compound | EC50 (MRC-5) | EC50 (HaCaT) | EC50 (A2058) | EC50 (ME-180) | EC50 (MCF 10A) | EC50 (HepG-2) | EC50 (NHDF) | other results |
| --- | --- | --- | --- | --- | --- | --- | --- | --- | --- | --- | --- | --- | --- | --- | --- | --- | --- | --- | --- | --- |
| 13 ± 0.1 µM | 24.5 µM | 19.1 ± 0.6 µM | 27.6 ± 0.3 µM | 50.1 ± 1.5 µM | 35.9 ± 1.4 µM | 17.7 ± 1.4 µM | 16.4 ± 1.6 µM | 11.9 ± 0.6 µM | 32.2 ± 1.1 µM | 24.5 ± 0.9 µM | 22.2 µM | COC(=O)C1=COC(C)[C@@H](C=O)[C@@H]1CC(=O)OCCc1ccc(O)c(O)c1 (mixture of isomers) [3a,b, oleuropein aglycone] | 8.6 ± 0.4 µM | 36.6 µM | 37.2 ± 0.8 µM | 25.5 ± 0.5 µM | 9.5 ± 0.4 µM | 17.7 ± 0.5 µM | 42.7 ± 0.5 µM | EC50 (SK-BR-3 [1]; five days of treatment, ref Menendez et al. (2007) 17, read-out: concentration reducing cell viability by 50%): 47 µM; Selectivity index SI (MCF 10A) (MDA-MB 231; EC50 MCF 10A / EC50 MDA-MB 231): 0.4; EC50 (MDA-MB 231): 25.4 ± 0.8 µM; Selectivity index SI (MRC-5) (H1299; EC50 MRC-5 / EC50 H1299): 0.4; EC50 (H1299; Homo sapiens, NCI-H1299, H1299, 72 h treatment, read-out: EC50 Values of Olive Oil Polyphenols): 24.1 ± 0.9 µM; Selectivity index SI (MCF 10A) (SK-BR-3 [2]; EC50 MCF 10A / EC50 SK-BR-3): 0.5; Selectivity index SI (MRC-5) (H1437; EC50 MRC-5 / EC50 H1437): 0.7; Selectivity index SI (HaCaT) (A2058; EC50 HaCaT / EC50 A2058): 1.0; Selectivity index SI (NHDF) (A2058; EC50 NHDF / EC50 A2058): 1.1; Selectivity index SI (HaCaT) (SK-MEL-28; EC50 HaCaT / EC50 SK-MEL-28): 2.4; Selectivity index SI (NHDF) (SK-MEL-28; EC50 NHDF / EC50 SK-MEL-28): 2.8; EC50 (SK-MEL-28): 15.1 ± 0.9 µM |
| 20.2 ± 1.5 µM | 10.4 ± 0.8 µM | 14.9 ± 0.9 µM | 44.6 ± 0.4 µM | 26.3 ± 2 µM | 18.3 ± 1 µM | 13 ± 0.6 µM | 10.2 ± 0.4 µM | 26.5 ± 1.1 µM | > 25 µM | 33.4 µM | 10.4 ± 1.1 µM | C/C=C(/C=O)[C@@H](CC=O)CC(=O)OCCc1ccc(O)cc1 [compound 1, oleocanthal] | 2 ± 0.1 µM | 19.3 ± 0.3 µM | 18.4 ± 0.4 µM | 9.1 ± 0.3 µM | 7 ± 0.3 µM | 40 ± 5.3 µM | 24.7 ± 0.4 µM | EC50 (SK-BR-3 [1]; 48 h treatment in HGF- and EGF-supplemented media, ref Siddique et al. (2019) 76, read-out: EC50): 27.3 µM; EC50 (MCF-7): 24.6 ± 2.6 µM; EC50 (Caco-2): 34.3 ± 4.1 µM |
